Laboratory results reported in patent US10870646B2, “Oxazolidinones and pharmaceutical compositions thereof for treating bacterial infections, including infection of Mycobacterium tuberculosis” (University of St. Thomas, priority 2017, dated 2020).
≈ marks a conversion by molar mass, not a printed value. Like-named read-outs stand apart in the source and are kept apart here.

Key:
[1] = tested on: Mycobacterium tuberculosis H37Rv; experiment: MIC90 broth macrodilution; type: cell-based
[2] = tested on: Mycobacterium tuberculosis 115R; experiment: MIC90 broth macrodilution; type: cell-based
[3] = tested on: Mycobacterium tuberculosis 124R; experiment: MIC90 broth macrodilution; type: cell-based
Mtb = type: cell-based, Mycobacterium tuberculosis

Row | SMILES | activity against growth (in words) [1] | MIC90 [2] [µg/mL] | MIC90 [3] [µg/mL] | frequency of spontaneous mutations that confer resistance (Mtb) | MIC90 ([2]; read-out: MIC90) [µg/mL] | MIC90 ([3]; read-out: MIC90) [µg/mL]
1 | CC(=O)NC[C@H]1CN(c2ccc3c(c2)Oc2ccccc2O3)C(=O)O1 [Compound T145] | potent activity | 0.5 to 1 (≈ 1.47 to 2.94 µM) | 0.5 to 1 (≈ 1.47 to 2.94 µM) | 4.0×10^−8 | – | –
2 | COc1cccc2c1Oc1ccc(N3C[C@H](CNC(C)=O)OC3=O)cc1O2 [Compound T197, (S)—N-((3-(6-methoxydibenzo[b,e][1,4]dioxin-2-yl)-2-oxooxazolidin-5-yl)methyl)acetamide] | – | – | – | – | 8 to 16 (≈ 21.6 to 43.2 µM) | 4 to 8 (≈ 10.8 to 21.6 µM)
3 | CC(=O)NC[C@H]1CN(c2ccc(N3CCOCC3)c(F)c2)C(=O)O1 [Linezolid, reference compound] | – | – | – | – | 0.25 to 0.5 (≈ 0.741 to 1.48 µM) | 0.25 to 0.5 (≈ 0.741 to 1.48 µM)
4 | C[C@@H](O)[C@H]1C(=O)N2C(C(=O)O)=C(S[C@@H]3CN[C@H](C(=O)N(C)C)C3)[C@H](C)[C@H]12 [Meropenem, reference compound] | – | – | – | – | 8 to 16 (≈ 20.9 to 41.7 µM) | 8 to 16 (≈ 20.9 to 41.7 µM)
